Experimental data taken from paper PMC4961458 (eLife, 2016).

Columns and labels:
TamR1 tumors [1] = system: TamR1 tumors; design: method as in Lai et al., 2015; conditions: 0.72 mg 60 day release E2 pellets; GDC-0810 p.o. 100 mg/kg/day; fulvestrant SC 200 mg/kg 3x/week; ref Lai et al., 2015; cited from earlier work
[2] = system: Doxycycline-inducible MCF7 cells over-expressing ER (ER.WT); experiment: Cell viability, doxycycline-inducible ER over-expressing MCF7 cells; type: cell-based; conditions: Homo sapiens, MCF7, 168 h, 7 days; for IC50: 0.1 nM E2, 10 ng/ml doxycycline; for EC50: estrogen-depleted medium, 10 ng/ml doxycycline, read-out: Cell viability EC50, ER.WT -E2
TamR1 tumors [3] = experiment: Tamoxifen-resistant MCF7 (TamR1) xenograft efficacy; type: in vivo, mice; conditions: 0.18 mg 60 day E2 pellets; tamoxifen 120 mg/kg/day p.o.; fulvestrant 200 mg/kg 3x/week s.c.; GDC-0810 10, 30 or 100 mg/kg/day p.o.; 27 days
Experimental: We previously generated a tamoxifen-resistant xenograft model, TamR1, by chronically treating MCF7 tumor bearing mice with tamoxifen until a resistant tumor emerged ([Lai et al., 2015]). […] These experiments were conducted in mice with relatively high levels of circulating estradiol, with estradiol being delivered via 0.72 mg 60 day release E2 pellets that are reported by the manufacturer (Innovative Research) to deliver between 300 and 400 pg/ml estradiol. Under these conditions the high E2 reduces the steady state ERα protein levels, thus confounding the readout of ERα protein as a pharmacodynamic endpoint (Figure 5—figure supplement 1). […] These pellets are sufficient to support tumor growth but only modestly reduce ERα levels (Figure 5—figure supplement 1).
Figure 5. […] (A) Tamoxifen-resistant MCF7 tumors were implanted in animals supplemented with 60-day release 0.18 mg 17β-estradiol pellets. […] S.c. is sub-cutaneous dosing, and p.o. is per os (by mouth) oral gavage dosing. * Denotes significance (p<0.05) compared to Vehicle in 1-Way ANOVA and Dunnett's Multiple Comparison Test. Figure 5—figure supplement 1. Effects of estradiol pellet on ERα levels in MCF7-TamR1 xenograft tumors. TamR1 tumor fragments were implanted into Crl:NU-Foxn1^nu mice implanted with either 0.72 or 0.18 mg/60 day 17-β estradiol pellets. Once tumors were established pellets were removed from 1 group. 28 days after pellet removal ERα protein levels were determined for 4 tumors from each group. Data is presented as average compared to Vehicle (-E2). Error is standard deviation. * Denotes significance (p<0.05) compared to Vehicle (-E2) by T-test. [drawing 7] […] (A) ERα protein levels were determined by western blot analysis of tumors 8 hr following the final compound treatment on day 27. […] KI-67 expression, quantified from IHC analysis. […]
The tamoxifen-resistant derivative of the ER+ human tumor cell line, MCF7 (TamR1) was developed by Seragon Pharmaceuticals, Inc ([Lai et al., 2015]). […] The tumors which continued to grow under these conditions were serially passaged and evaluated for continued tamoxifen resistance. […]

PR-B = biological target: T1, PR-B (Homo sapiens, UniProt P06401); experiment: PR-B transcriptional reporter assay, agonist mode (HEPG2 cells); type: cell-based; conditions: % of maximal R5020-stimulated activity
T1 construct: cloning full-length human PRb into pCDNA; expressed in transfected cells; host or cells: HEPG2
T1 sequence (P06401 1-933): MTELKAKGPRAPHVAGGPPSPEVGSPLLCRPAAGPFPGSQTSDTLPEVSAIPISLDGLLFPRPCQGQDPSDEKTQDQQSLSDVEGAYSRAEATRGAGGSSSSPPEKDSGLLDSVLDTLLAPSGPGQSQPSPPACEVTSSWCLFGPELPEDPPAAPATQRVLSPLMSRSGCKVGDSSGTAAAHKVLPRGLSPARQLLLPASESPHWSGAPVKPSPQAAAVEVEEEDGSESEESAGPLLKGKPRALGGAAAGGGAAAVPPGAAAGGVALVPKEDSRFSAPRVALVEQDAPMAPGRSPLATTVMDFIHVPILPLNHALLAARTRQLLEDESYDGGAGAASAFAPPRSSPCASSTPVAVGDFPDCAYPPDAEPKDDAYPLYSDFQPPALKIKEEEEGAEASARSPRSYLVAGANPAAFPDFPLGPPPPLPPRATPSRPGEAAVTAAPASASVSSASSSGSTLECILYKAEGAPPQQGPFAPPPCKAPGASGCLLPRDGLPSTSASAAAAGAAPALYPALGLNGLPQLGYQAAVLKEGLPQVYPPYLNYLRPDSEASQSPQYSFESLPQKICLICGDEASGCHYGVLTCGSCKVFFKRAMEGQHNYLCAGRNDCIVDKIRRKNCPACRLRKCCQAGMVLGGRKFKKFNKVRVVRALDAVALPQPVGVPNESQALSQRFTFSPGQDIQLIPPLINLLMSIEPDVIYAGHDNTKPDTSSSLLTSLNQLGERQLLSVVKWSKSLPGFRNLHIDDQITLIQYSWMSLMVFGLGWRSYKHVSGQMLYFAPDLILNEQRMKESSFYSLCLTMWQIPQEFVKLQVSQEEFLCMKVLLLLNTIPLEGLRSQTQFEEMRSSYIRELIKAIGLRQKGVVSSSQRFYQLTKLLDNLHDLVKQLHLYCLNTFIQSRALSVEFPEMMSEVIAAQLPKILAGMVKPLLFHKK

| SMILES | Tumor growth response, TamR1 xenograft, high E2 (TamR1 tumors [1]) | IC50 [2] | EC50 [2] | Tumor growth response, TamR1 xenograft, lower E2 (TamR1 tumors [3]) | Emax (PR-B) |
| --- | --- | --- | --- | --- | --- |
| C[C@]12CC[C@@H]3c4ccc(O)cc4C[C@@H](CCCCCCCCC[S+]([O-])CCCC(F)(F)C(F)(F)F)[C@H]3[C@@H]1CC[C@@H]2O (stereo partly shown) [Fulvestrant] | only modest tumor growth inhibition | 11 nM | 1.2 nM | resulted in regression of TamR1 tumors | – |
| CC/C(=C(/c1ccc(/C=C/C(=O)O)cc1)c1ccc2[nH]ncc2c1)c1ccc(F)cc1Cl [GDC-0810] | induced tumor regressions | 19 nM | 0.8 nM | induced regression at all doses tested | 0.35 ± 0.31% |
| CC/C(=C(\c1ccc(O)cc1)c1ccc(OCCN(C)C)cc1)c1ccccc1 [4-OH Tam, 4-hydroxytamoxifen] | – | – | – | – | 0.39 ± 0.23% |
